Results published in PMC2593151 (Bioorganic & medicinal chemistry letters, 2008).
Like-named read-outs stand apart in the source and are kept apart here.

How the values were obtained:
LuxR [1] = molecular target: T1, LuxR (Aliivibrio fischeri, UniProt P35327); test: LuxR agonism reporter assay; format: cell-based, Vibrio fischeri
LasR [2] = molecular target: T2, LasR (Pseudomonas aeruginosa, UniProt P25084); test: LasR agonism reporter gene assay, E. coli DH5α; format: cell-based
TraR [3] = molecular target: T3, TraR (Agrobacterium tumefaciens, UniProt P33905); test: TraR antagonism reporter gene assay; format: cell-based
T3 sequence (P33905 whole entry): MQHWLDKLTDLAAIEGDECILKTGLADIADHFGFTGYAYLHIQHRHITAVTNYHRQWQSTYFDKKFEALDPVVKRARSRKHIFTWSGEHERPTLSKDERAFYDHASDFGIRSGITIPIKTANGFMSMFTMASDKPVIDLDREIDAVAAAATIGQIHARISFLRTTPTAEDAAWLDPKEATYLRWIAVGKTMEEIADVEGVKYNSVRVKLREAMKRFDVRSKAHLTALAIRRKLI

LuxR [4] = molecular target: T1, LuxR; test: LuxR antagonism reporter assay; format: cell-based, Vibrio fischeri
LuxR [5] = molecular target: T1, LuxR; details: cited from earlier work
TraR [6] = molecular target: T3, TraR; details: shown previously; cited from earlier work
LasR [7] = molecular target: T2, LasR; details: shown previously; cited from earlier work
LasR [8] = molecular target: T2, LasR; details: read-out: EC50 E. coli LasR; controls; compound alone; ref 5a; cited from earlier work
LuxR [9] = molecular target: T1, LuxR; details: shown previously; cited from earlier work

T2 sequence (P25084 whole entry): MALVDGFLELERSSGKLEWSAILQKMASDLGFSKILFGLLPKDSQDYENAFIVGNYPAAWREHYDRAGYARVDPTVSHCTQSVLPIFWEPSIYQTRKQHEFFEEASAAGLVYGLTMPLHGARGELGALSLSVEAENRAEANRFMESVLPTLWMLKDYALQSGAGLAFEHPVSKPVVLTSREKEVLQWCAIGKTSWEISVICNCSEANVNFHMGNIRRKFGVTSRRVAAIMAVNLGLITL
T1 sequence (P35327 whole entry): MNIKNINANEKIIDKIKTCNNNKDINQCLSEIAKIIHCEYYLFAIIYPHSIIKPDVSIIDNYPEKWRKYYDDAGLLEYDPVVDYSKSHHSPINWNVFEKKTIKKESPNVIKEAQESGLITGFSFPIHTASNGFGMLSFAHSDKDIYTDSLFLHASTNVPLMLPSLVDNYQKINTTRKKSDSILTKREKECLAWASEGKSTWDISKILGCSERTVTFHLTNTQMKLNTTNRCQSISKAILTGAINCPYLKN

SMILES: O=C(Cc1cccc(C(F)(F)F)c1)N[C@H]1CCOC1=O [E3, 3-CF3 PHL]
- LuxR activation (in words) (LuxR [1]; Library E): failed to activate LuxR

SMILES: N#Cc1cccc(CC(=O)N[C@H]2CCOC2=O)c1 [E5, 3-CN PHL]
- EC50 (LuxR [1]): 300 nM

SMILES: O=C(Cc1ccc(SC(F)(F)F)cc1)N[C@H]1CCOC1=O [E8, 4-SCF3 PHL]
- EC50 (LasR [2]): 3400 nM

SMILES: O=C(Cc1cc(C(F)(F)F)cc(C(F)(F)F)c1)N[C@H]1CCOC1=O [E9, 3,5-CF3 PHL]
- EC50 (LuxR [1]): 370 nM

SMILES: O=C(COc1ccc([N+](=O)[O-])cc1)N[C@H]1CCOC1=O [E24, 4-NO2 POHL]
- IC50 (TraR [3]): ~250 nM

SMILES: O=C(CCc1cccc(Br)c1)N[C@H]1CCOC1=O [E31, 3-Br PPHL]
- IC50 (LuxR [4]): ~470 nM

SMILES: O=C(CCc1ccc(I)cc1)N[C@H]1CCOC1=O [E32]
- EC50 (LasR [2]): > 10000 nM

SMILES: O=C(CCc1cccc(I)c1)N[C@H]1CCOC1=O [E33, 3-I PPHL]
- IC50 (LuxR [4]): ~470 nM

SMILES: O=C(CCc1ccc(C(F)(F)F)cc1)N[C@H]1CCOC1=O [E35, 4-CF3 PHHL]
- IC50 (TraR [3]): ~250 nM
- EC50 (LasR [2]): > 10000 nM

SMILES: O=C(CCc1cccc(C(F)(F)F)c1)N[C@H]1CCOC1=O [E36, 3-CF3 PPHL]
- IC50 (LuxR [4]): ~470 nM

SMILES: O=C(CCc1ccc2c(c1)OCO2)N[C@H]1CCOC1=O [E39]
- EC50 (LasR [2]): > 10000 nM

SMILES: O=C(Cc1cccc([N+](=O)[O-])c1)N[C@H]1CCOC1=O [compound 4, 3-NO2 PHL]
- LuxR activation threshold level (LuxR [5]; previously reported LuxR activator): ~ 100%
- EC50 (LuxR [5]; read-out: EC50 V. fischeri LuxR, controls, compound alone, ref 5a): 350 nM

SMILES: O=C(COc1ccc(OC(F)(F)F)cc1)N[C@H]1CCOC1=O [compound 6, 4-OCF3 POHL]
- TraR inhibition (in words) (TraR [6]): strong
- LasR inhibition (in words) (LasR [7]): moderate
- EC50 (LasR [8]): 6300 nM

SMILES: O=C(CCc1ccccc1)NC1CCOC1=O (centres unmarked) [compound 7, non-substituted PPHL]
- TraR inhibition (in words) (TraR [6]): minimal activity
- LasR inhibition (in words) (LasR [7]): minimal activity
- LuxR inhibition (in words) (LuxR [9]): minimal activity

SMILES: O=C(CCc1ccc(Br)cc1)N[C@H]1CCOC1=O [compound 8, 4-bromo PPHL]
- TraR inhibition (in words) (TraR [6]): potent inhibitor
- LasR inhibition (in words) (LasR [7]): potent inhibitor
- LuxR inhibition (in words) (LuxR [9]): potent inhibitor
